According to patent US20240218342A1, “SITE-SPECIFIC GLYCAN REMODELING OF LYSOSOMAL ENZYMES AND APPLICATIONS THEREOF” (priority 2021, published 2024):
Entries after “also recorded” stand apart in the source; their conditions may differ.

Experiments:
CI-MPR = CI-MPR (Homo sapiens, UniProt P11717); details: previous studies; read-out: apparent KD; cited from earlier work
[1] = test system: GAA-deficient multinucleated myotubes (KO); experiment: Cell-associated GAA activity in treated GAA KO myotubes; type: cell-based, mouse; details: 5 μM for 24 hours, compared to untreated cells
Procedure: (§1) Muscle cell culture, treatment, processing, and analysis. The biological effect of the Endo-A (69) and Endo-F3 (70) remodeled rhGAA was investigated in an in vitro model of Pompe disease.^[11, 12] The myoblasts are grown on Matrigel (Corning; 354234)-coated 6-well plates at 33° C. in an atmosphere of 5% CO2 in proliferation medium [20% fetal bovine serum, 10% horse serum, 1% chick embryo extract, recombinant IFN-γ (100 U/mL; Life Technologies), 1× penicillin/streptomycin/L-glutamine in high-glucose (4.5 g/L) DMEM]. When the cells reach 70-80% confluency (3-4 days), the medium is switched to differentiation medium [DMEM containing 2% horse serum, 0.5% chick embryo extract, recombinant human insulin (10 μg/mL, Life Technologies, 12585-014), 1× penicillin/streptomycin/L-glutamine], and the cells are moved to 37° C. in an atmosphere of 5% CO2. Myotubes begin to form within 3-4 days; they can survive for ˜ 8-10 days in culture until they start twitching and detach from the surface. […]
Measurement of cell-associated GAA activity. The GAA activity in the cells was measured by using 4-methylumbelliferyl-α-D-glucopyranoside (4-MU-α-glucopyranoside; Sigma-Aldrich #M9766) as the fluorogenic GAA substrate as described.^[13] […] Fluorescence was measured on a multi-label plate reader (TECAN, SPARK 10M) at 360 nm excitation/465 nm emission.

[2] = test system: GAA-deficient multinucleated myotubes (KO); experiment: LAMP1 immunofluorescence (lysosomal swelling) in GAA KO myotubes; type: cell-based, mouse; details: 5 μM for 24 hours, confocal images
Procedure: Muscle cell culture, treatment, processing, and analysis. The biological effect of the Endo-A (69) and Endo-F3 (70) remodeled rhGAA was investigated in an in vitro model of Pompe disease.^[11, 12] The myoblasts are grown on Matrigel (Corning; 354234)-coated 6-well plates at 33° C. in an atmosphere of 5% CO2 in proliferation medium [20% fetal bovine serum, 10% horse serum, 1% chick embryo extract, recombinant IFN-γ (100 U/mL; Life Technologies), 1× penicillin/streptomycin/L-glutamine in high-glucose (4.5 g/L) DMEM]. When the cells reach 70-80% confluency (3-4 days), the medium is switched to differentiation medium [DMEM containing 2% horse serum, 0.5% chick embryo extract, recombinant human insulin (10 μg/mL, Life Technologies, 12585-014), 1× penicillin/streptomycin/L-glutamine], and the cells are moved to 37° C. in an atmosphere of 5% CO2. Myotubes begin to form within 3-4 days; they can survive for ˜ 8-10 days in culture until they start twitching and detach from the surface.
The commercial rhGAA, Endo-A- or Endo-F3 remodeled rhGAA were added to the myotubes (on day 8 in differentiation medium) at a concentration of 5 μM for 24 hours; n=5 independent experiments for each condition. Wild type (WT) immortalized myotubes and untreated KO myotubes were used for comparison. The cells were homogenized on ice in deionized H2O, sonicated, and centrifuged at 18,000×g at 4° ° C. for 15 min. […]

[3] = test system: GAA-deficient multinucleated myotubes (KO); experiment: Western blotting of treated GAA KO myotube lysates; type: cell-based, mouse; details: 5 μM for 24 hours
Procedure: as §1
Western blotting. […] Protein concentrations of the supernatants were measured using the Bio-Rad Protein Assay (Bio-Rad Laboratories, Inc.), and equal amounts of protein were run on SDS-PAGE gels (Invitrogen, Carlsbad, CA). […]

Chain of CI-MPR (P11717 41-2491, species assumed): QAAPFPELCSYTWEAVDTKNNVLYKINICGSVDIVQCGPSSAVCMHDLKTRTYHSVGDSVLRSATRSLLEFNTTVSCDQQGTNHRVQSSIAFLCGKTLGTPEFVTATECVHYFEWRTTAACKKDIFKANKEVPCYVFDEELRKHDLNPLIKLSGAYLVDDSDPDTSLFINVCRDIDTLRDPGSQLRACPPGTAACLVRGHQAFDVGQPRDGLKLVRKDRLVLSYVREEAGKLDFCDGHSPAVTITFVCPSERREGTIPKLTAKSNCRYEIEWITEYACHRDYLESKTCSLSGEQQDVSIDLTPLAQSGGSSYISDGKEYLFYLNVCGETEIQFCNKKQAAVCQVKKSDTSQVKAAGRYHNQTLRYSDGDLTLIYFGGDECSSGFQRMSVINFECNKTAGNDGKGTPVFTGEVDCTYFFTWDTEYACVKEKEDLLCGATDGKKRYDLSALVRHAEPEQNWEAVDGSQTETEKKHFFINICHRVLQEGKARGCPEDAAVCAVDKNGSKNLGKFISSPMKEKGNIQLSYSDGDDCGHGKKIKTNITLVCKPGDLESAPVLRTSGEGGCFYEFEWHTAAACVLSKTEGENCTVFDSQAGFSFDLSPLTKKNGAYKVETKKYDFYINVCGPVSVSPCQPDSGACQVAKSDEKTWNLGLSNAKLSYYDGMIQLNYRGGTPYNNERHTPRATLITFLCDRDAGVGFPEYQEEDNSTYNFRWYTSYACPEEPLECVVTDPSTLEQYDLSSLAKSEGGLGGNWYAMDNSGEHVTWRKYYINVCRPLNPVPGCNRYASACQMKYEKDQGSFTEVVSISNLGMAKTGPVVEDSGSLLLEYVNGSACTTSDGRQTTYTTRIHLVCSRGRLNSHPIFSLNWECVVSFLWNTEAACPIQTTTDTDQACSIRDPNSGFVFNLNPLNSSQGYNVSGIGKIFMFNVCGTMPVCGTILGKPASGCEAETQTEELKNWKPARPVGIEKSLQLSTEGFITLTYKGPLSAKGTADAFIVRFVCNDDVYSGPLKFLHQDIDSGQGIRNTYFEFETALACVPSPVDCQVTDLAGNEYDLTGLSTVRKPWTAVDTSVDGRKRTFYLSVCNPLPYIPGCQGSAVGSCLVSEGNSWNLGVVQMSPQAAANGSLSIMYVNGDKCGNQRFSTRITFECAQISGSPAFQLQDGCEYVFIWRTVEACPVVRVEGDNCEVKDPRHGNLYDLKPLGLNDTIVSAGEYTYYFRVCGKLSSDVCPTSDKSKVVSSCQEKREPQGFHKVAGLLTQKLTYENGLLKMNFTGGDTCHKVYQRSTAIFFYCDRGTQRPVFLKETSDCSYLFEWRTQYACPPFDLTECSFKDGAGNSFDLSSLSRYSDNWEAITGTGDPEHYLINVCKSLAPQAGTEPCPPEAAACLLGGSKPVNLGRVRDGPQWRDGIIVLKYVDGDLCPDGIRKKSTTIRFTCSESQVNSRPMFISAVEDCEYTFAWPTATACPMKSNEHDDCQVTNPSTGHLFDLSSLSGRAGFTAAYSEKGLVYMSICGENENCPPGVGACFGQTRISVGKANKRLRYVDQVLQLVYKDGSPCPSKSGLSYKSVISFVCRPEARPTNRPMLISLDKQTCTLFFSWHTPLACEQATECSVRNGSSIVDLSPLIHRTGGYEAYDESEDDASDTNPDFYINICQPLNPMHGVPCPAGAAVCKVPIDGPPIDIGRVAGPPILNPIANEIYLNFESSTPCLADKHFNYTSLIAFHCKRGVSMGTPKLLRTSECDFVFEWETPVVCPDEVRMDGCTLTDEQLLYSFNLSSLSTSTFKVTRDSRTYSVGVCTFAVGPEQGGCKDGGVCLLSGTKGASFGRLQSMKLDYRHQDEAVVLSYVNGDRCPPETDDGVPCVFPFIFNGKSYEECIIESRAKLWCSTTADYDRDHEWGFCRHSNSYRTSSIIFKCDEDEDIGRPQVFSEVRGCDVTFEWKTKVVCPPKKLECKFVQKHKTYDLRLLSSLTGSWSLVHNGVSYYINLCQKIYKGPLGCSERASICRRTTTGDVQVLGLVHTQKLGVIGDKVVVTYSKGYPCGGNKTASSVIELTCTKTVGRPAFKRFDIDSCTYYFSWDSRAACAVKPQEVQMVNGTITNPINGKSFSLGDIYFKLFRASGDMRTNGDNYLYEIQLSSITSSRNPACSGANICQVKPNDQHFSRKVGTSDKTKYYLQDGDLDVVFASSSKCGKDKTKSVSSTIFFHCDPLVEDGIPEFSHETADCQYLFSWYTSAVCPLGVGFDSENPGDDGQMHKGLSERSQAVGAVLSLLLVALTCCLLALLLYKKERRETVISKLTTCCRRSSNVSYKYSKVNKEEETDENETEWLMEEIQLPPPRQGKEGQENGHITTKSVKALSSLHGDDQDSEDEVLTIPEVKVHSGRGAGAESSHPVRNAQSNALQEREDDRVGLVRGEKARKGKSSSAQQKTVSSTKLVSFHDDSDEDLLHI

Substance	Kd (CI-MPR)	GAA activity in cell lysates (cellular uptake) [1]	enlarged LAMP1-positive lysosomes [2]	levels of endosomal (Rab5) and lysosomal (LAMP1) markers ([3]; Western blot)	processed, mature lysosomal form of rhGAA (76 kDa) in cells ([3]; Western blot with anti-human GAA antibodies)
ATB200: novel rhGAA carrying a higher M6P content that binds the CI-MPR with high affinity (previous studies)	2 to 4 nM	–	–	–	–
Lumizyme: recombinant human acid α-glucosidase (alglucosidase alfa, Genzyme), therapeutic lysosomal enzyme for Pompe disease	–	only a slight increase (statistically insignificant)	Enlarged lysosomes were seen; also recorded: can be detected; also recorded: contain enlarged LAMP1-positive lysosomes	remained the same as in the untreated GAA-deficient cells	barely detectable
